Results taken from the NIST ThermoML archive (doi:10.1016/j.fluid.2005.06.024).
± gives the expanded uncertainty stated by the source.

How the values were obtained:
[1] = 298.15 K; 101.3 kPa; Liquid
[2] = xn = mol fraction of the nth substance listed; settings: 298.15 K, 101.3 kPa, Liquid

## CC(C)=O [acetone]
[1]
  mass density: 784.37 ± 0.31 kg/m3
  speed of sound: 1162 ± 2 m/s

## CC(C)=O [acetone] + CCOC(=O)OCC
[2]; x1 = 1
  mass density: 784.37 ± 0.31 kg/m3
  speed of sound: 1162 ± 2 m/s

## CCC(C)=O [butanone]
[1]
  mass density: 799.7 ± 0.35 kg/m3
  speed of sound: 1192 ± 2 m/s

## CCC(C)=O [butanone] + CCOC(=O)OCC
[2]; x1 = 1
  mass density: 799.7 ± 0.35 kg/m3
  speed of sound: 1192 ± 2 m/s

## CCOC(=O)OCC [diethyl carbonate]
[1]
  mass density: 969.24 ± 0.27 kg/m3
  speed of sound: 1178 ± 2 m/s

## CCOC(=O)OCC [diethyl carbonate] + CC(C)=O
[2]; x2 = 0
  mass density: 969.24 ± 0.27 kg/m3
  speed of sound: 1178 ± 2 m/s
[2]; x2 = 0.0384
  mass density: 964.96 ± 0.27 kg/m3
  speed of sound: 1177 ± 2 m/s
[2]; x2 = 0.0901
  mass density: 959 ± 0.26 kg/m3
  speed of sound: 1176 ± 2 m/s
[2]; x2 = 0.1832
  mass density: 947.54 ± 0.26 kg/m3
  speed of sound: 1175 ± 2 m/s
[2]; x2 = 0.2827
  mass density: 934.21 ± 0.25 kg/m3
  speed of sound: 1173 ± 2 m/s
[2]; x2 = 0.3847
  mass density: 919.29 ± 0.25 kg/m3
  speed of sound: 1171 ± 2 m/s
[2]; x2 = 0.4847
  mass density: 903.08 ± 0.26 kg/m3
  speed of sound: 1170 ± 2 m/s
[2]; x2 = 0.5888
  mass density: 884.33 ± 0.26 kg/m3
  speed of sound: 1168 ± 2 m/s
[2]; x2 = 0.6936
  mass density: 863.26 ± 0.26 kg/m3
  speed of sound: 1166 ± 2 m/s
[2]; x2 = 0.7967
  mass density: 839.9 ± 0.27 kg/m3
  speed of sound: 1164 ± 2 m/s
[2]; x2 = 0.9017
  mass density: 813 ± 0.29 kg/m3
  speed of sound: 1162 ± 2 m/s
[2]; x2 = 0.9546
  mass density: 798.07 ± 0.3 kg/m3
  speed of sound: 1162 ± 2 m/s

## CCOC(=O)OCC [diethyl carbonate] + CCC(C)=O
[2]; x2 = 0
  mass density: 969.24 ± 0.27 kg/m3
  speed of sound: 1178 ± 2 m/s
[2]; x2 = 0.0486
  mass density: 963.14 ± 0.27 kg/m3
  speed of sound: 1178 ± 2 m/s
[2]; x2 = 0.1002
  mass density: 956.52 ± 0.28 kg/m3
  speed of sound: 1179 ± 2 m/s
[2]; x2 = 0.1958
  mass density: 943.68 ± 0.28 kg/m3
  speed of sound: 1180 ± 2 m/s
[2]; x2 = 0.2977
  mass density: 929.22 ± 0.29 kg/m3
  speed of sound: 1181 ± 2 m/s
[2]; x2 = 0.399
  mass density: 913.95 ± 0.29 kg/m3
  speed of sound: 1182 ± 2 m/s
[2]; x2 = 0.4976
  mass density: 898.2 ± 0.31 kg/m3
  speed of sound: 1184 ± 2 m/s
[2]; x2 = 0.6444
  mass density: 872.87 ± 0.31 kg/m3
  speed of sound: 1186 ± 2 m/s
[2]; x2 = 0.7172
  mass density: 859.36 ± 0.32 kg/m3
  speed of sound: 1187 ± 2 m/s
[2]; x2 = 0.8294
  mass density: 837.19 ± 0.33 kg/m3
  speed of sound: 1189 ± 2 m/s
[2]; x2 = 0.9031
  mass density: 821.58 ± 0.34 kg/m3
  speed of sound: 1190 ± 2 m/s
[2]; x2 = 0.9554
  mass density: 810.05 ± 0.34 kg/m3
  speed of sound: 1191 ± 2 m/s

## CCOC(=O)OCC [diethyl carbonate] + CCCC(C)=O
[2]; x2 = 0
  mass density: 969.24 ± 0.27 kg/m3
  speed of sound: 1178 ± 2 m/s

## CCCC(C)=O [pentan-2-one]
[1]
  mass density: 801.39 ± 0.35 kg/m3
  speed of sound: 1212 ± 2 m/s

## CCCC(C)=O [pentan-2-one] + CCOC(=O)OCC
[2]; x1 = 0.0483
  mass density: 962.08 ± 0.27 kg/m3
  speed of sound: 1179 ± 2 m/s
[2]; x1 = 0.0983
  mass density: 954.6 ± 0.28 kg/m3
  speed of sound: 1180 ± 2 m/s
[2]; x1 = 0.1923
  mass density: 940.27 ± 0.28 kg/m3
  speed of sound: 1183 ± 2 m/s
[2]; x1 = 0.2988
  mass density: 923.61 ± 0.29 kg/m3
  speed of sound: 1187 ± 2 m/s
[2]; x1 = 0.3998
  mass density: 907.38 ± 0.3 kg/m3
  speed of sound: 1190 ± 2 m/s
[2]; x1 = 0.4996
  mass density: 890.92 ± 0.31 kg/m3
  speed of sound: 1193 ± 2 m/s
[2]; x1 = 0.6034
  mass density: 873.34 ± 0.31 kg/m3
  speed of sound: 1197 ± 2 m/s
[2]; x1 = 0.7077
  mass density: 855.18 ± 0.32 kg/m3
  speed of sound: 1201 ± 2 m/s
[2]; x1 = 0.8037
  mass density: 838 ± 0.33 kg/m3
  speed of sound: 1204 ± 2 m/s
[2]; x1 = 0.9026
  mass density: 819.83 ± 0.34 kg/m3
  speed of sound: 1208 ± 2 m/s
[2]; x1 = 0.9491
  mass density: 811.1 ± 0.34 kg/m3
  speed of sound: 1210 ± 2 m/s
[2]; x1 = 1
  mass density: 801.39 ± 0.35 kg/m3
  speed of sound: 1212 ± 2 m/s
